Experimental data as given in US20050020582A1 (priority 2001, published 2005).
Where two headings read alike, the source gives them in different places.

Columns and labels:
[1] = tested on: neuroblastoma cells (ScN2a); conditions: mouse
[2] = human, in vivo, cited from earlier work

Q: For `CN(C)CCCN1c2ccccc2Sc2ccc(Cl)cc21` [chlorpromazine], which “decrease in cell population (cytotoxic effects)” value [1] is on record?
A: The value was 50%.

Q: With `CCN(CC)CCCC(C)Nc1c2ccc(Cl)cc2nc2ccc(OC)cc12` (stereo not shown) [quinacrine] as the compound, how does the “concentrations without cytotoxic effects on neuroblastoma cells” value [1] read?
A: Its value is less than 5 µM.

Q: Which brain concentration ([2]; po) does the source give for `CSc1ccc2c(c1)N(CCC1CCCCN1C)c1ccccc1S2` (stereo not shown) [thioridazine] here?
A: The brain concentration was “more than 80 μM”.

Q: And the brain concentration [2]?
A: The brain concentration was 20 µM.
